Read-outs that look alike come from different tables or passages of the source.
What was measured:
Human monocytes [1] = conditions: GPI 300 uM; for protein expression level (fold increase over control cells): LPS stimulus
Excerpt: (§1) The purpose of the experiments conducted is the in vitro evaluation of the anti-inflammatory activity and of the immune modulating power in the response to bacterial or viral activation, of monocytes activated and treated with GPI. Measurements of protein production or miRNA levels were expressed as an increase relative to the respective control (unstimulated) cells.
Human monocytes were isolated from fresh buffy coats of healthy blood donors, kindly provided by the Centro Immunotrasfusionale, Hospital of Ferrara, Italy, through a Ficoll-Paque™ PLUS gradient followed by Percoll™. PBMCs were firstly obtained by 1.077 g/ML Ficoll-Paque™ PLUS (GE Healthcare Life Sciences, Little Chalfont, UK) density gradient separation according to the manufacturer's protocol. After collecting the mononuclear cells located at the interface between Ficoll and plasma-medium layer, these were washed with PBS, then layered over a solution of 1.130 g/mL Percoll™ (GE Healthcare Life Sciences) before centrifugation at 1650 rpm for 30 min at 4° C. The monocyte layer, which appeared cloudy and occasionally with few red spots, was carefully aspirated and washed with PBS to remove traces of Percoll™. The harvested monocytes were then suspended in RPMI 1640 medium (EuroClone) containing 2% FBS, and incubated at 37° C. and 5% CO2. After 1 h, non-adherent cells including residual lymphocytes were removed, and monocytes were detached using a cell scraper, then seeded onto plastic culture wells. […]
The supernatants of the cultures after 5 and 24 h were collected, centrifuged at 400×g for 10 min at 4° C., then analyzed for TF HGF, PGE-2 and IL-10 production using commercial ELISA kits (Thermo Fisher Scientific) according to the manufacturer's instructions. […]
Measurements of protein production or miRNA levels were expressed as fold increase over the respective control (unstimulated) cells, and are means (SD) of triplicates from one representative experiment of 4 experiments performed with cells from different donors.

Human monocytes [2] = conditions: GPI 300 uM, activated monocytes, 24 hours of treatment (FIG. 6)
Excerpt: Human monocytes were isolated from fresh buffy coats of healthy blood donors, kindly provided by the Centro Immunotrasfusionale, Hospital of Ferrara, Italy, through a Ficoll-Paque™ PLUS gradient followed by Percoll™. PBMCs were firstly obtained by 1.077 g/ML Ficoll-Paque™ PLUS (GE Healthcare Life Sciences, Little Chalfont, UK) density gradient separation according to the manufacturer's protocol. After collecting the mononuclear cells located at the interface between Ficoll and plasma-medium layer, these were washed with PBS, then layered over a solution of 1.130 g/mL Percoll™ (GE Healthcare Life Sciences) before centrifugation at 1650 rpm for 30 min at 4° C. The monocyte layer, which appeared cloudy and occasionally with few red spots, was carefully aspirated and washed with PBS to remove traces of Percoll™. The harvested monocytes were then suspended in RPMI 1640 medium (EuroClone) containing 2% FBS, and incubated at 37° C. and 5% CO2. After 1 h, non-adherent cells including residual lymphocytes were removed, and monocytes were detached using a cell scraper, then seeded onto plastic culture wells.
Treatment with GPI: 300 uM. […]
Measurements of protein production or miRNA levels were expressed as fold increase over the respective control (unstimulated) cells, and are means (SD) of triplicates from one representative experiment of 4 experiments performed with cells from different donors. […]

Human monocytes [3] = conditions: GPI 300 uM, 24 hours of treatment (FIG. 5)
Excerpt: as §1
Human monocytes were isolated from fresh buffy coats of healthy blood donors, kindly provided by the Centro Immunotrasfusionale, Hospital of Ferrara, Italy, through a Ficoll-Paque™ PLUS gradient followed by Percoll™. […]
Total RNA was extracted from cultures after 12 and 24 h using the total RNA purification Plus kit, The RNA quality and concentration of the samples were measured with the NanoDrop™ ND-1000 (Thermo Fisher Scientific). […]
Real-time PCR was performed according to the user's manual of the Inflammatory RT^2 profiler PCR Array (Qiagen) with a StepOnePlus™ Real-Time PCR System (Applied Biosystems™, Foster City, CA, USA) and using RT^2 SYBR Green ROX FAST Master Mix (Qiagen). Thermal cycling and fluorescence detection were as follows: 95° C. for 10 min, followed by 40 cycles of 95° C. for 15 s, and 60° C. for 1 min. […] Data were analyzed using the Web-based PCR array data analysis software, which is available at https://www.qiagen.com/it/shop/genes-and-pathways/data-analysis-center-overview-page/. […]

For “L-α-glycero-phospho-D-myo-inositol [GPI]”, the “protein expression level (fold increase over control cells)” value (Human monocytes [1]; 5 hours of treatment (FIG. 3)) was “inhibitory effects”, the “protein expression level (fold increase over control cells)” value (Human monocytes [1]; 24 hours of treatment (FIG. 4)) was “inhibitory effects” and the inflammatory cytokine production (Human monocytes [1]; monocytes in inflammation / LPS sepsis / viral infection mimicking environment) was “reduce”. The “production of IL12 and 23 during inflammation” value (Human monocytes [2]) was “reduction” and the “miRNA level related to M1 (inflammatory) or M2 (antiinflammatory) commitment” value (Human monocytes [3]) was “inhibitory effects”.

Reference: US20250346615A1, “GLYCEROPHOSP[…] PREVENTING AND TREATING COVID-19 INFECTIONS AND METHOD FOR OBTAINING IT” (PLANTAREI BIOTECH S.R.L., priority 2022, published 2025)
